From ChEMBL document CHEMBL3885861, “Open TG-GATES”

Species: Rattus norvegicus
Experiment: Open TG-GATES - Regimen: Single
Assay type: toxicity, organism-based, Sprague-Dawley
Design: regimen Single, gender Male, age 6 weeks
Details: in vivo, po, 30 mg/kg, route gavage, dose level High; for APTT / Bas / Eos / Fbg / Hb / Ht / Lym / MCH / MCHC / MCV / Mono / Neu / PT / Plat / RBC / Ret / WBC: tissue Blood; for KIDNEY_L / KIDNEY_R / KIDNEY_TOTAL: tissue Kidney; for LIVER: tissue Liver; for A/G / ALP / ALT / AST / BUN / CRE / Ca / Cl / DBIL / GLC / IP / K / LDH / Na / PL / RALB / TBIL / TC / TG / TP / gamma-GTP: tissue Plasma

Compound `CN(C)CCC(c1ccc(Cl)cc1)c1ccccn1` (configuration not stated) [CHLORPHENIRAMINE] has a TERMINAL_BW (3 h) of 197.2 g, an APTT (3 h) of 16.3 s and a Bas (3 h) of 0%. For the same compound, the Eos (3 h) was 0.8%, the Fbg (3 h) was 287.6 mg/dL and the Hb (3 h) was 13.5 g/dL. For the same compound, the Ht (3 h) was 42.6%, the Lym (3 h) was 74.2% and the MCH (3 h) was 21.2 pg. It also gave an MCHC (3 h) of 31.8%, an MCV (3 h) of 66.5 fL and a Mono (3 h) of 3.4%. The Neu (3 h) was 21%, the PT (3 h) was 14.8 s and the Plat (3 h) was 128.4 x10_4/uL. The RBC (3 h) was 640.8 x10_4/ul, the Ret (3 h) was 10.2% and the WBC (3 h) was 67.1 x10_2/uL. For the same compound, the KIDNEY_L (3 h) was 0.9 g, the KIDNEY_R (3 h) was 0.9 g and the KIDNEY_TOTAL (3 h) was 1.7 g. It also gave an LIVER (3 h) of 9 g, an A/G (3 h) of 0.9 and an ALP (3 h) of 1548.6 IU/L. The ALT (3 h) was 43.6 IU/L, the AST (3 h) was 79.2 IU/L and the BUN (3 h) was 8.4 mg/dL. For the same compound, the CRE (3 h) was 0.1 mg/dL, the Ca (3 h) was 10.5 mg/dL and the Cl (3 h) was 108.8 meq/L. The DBIL (3 h) was 0.008 mg/dL, the GLC (3 h) was 183.6 mg/dL and the IP (3 h) was 10 mg/dL. The K (3 h) was 4.1 meq/L, the LDH (3 h) was 139.4 IU/L and the Na (3 h) was 143.4 meq/L. For the same compound, the PL (3 h) was 146.6 mg/dL, the RALB (3 h) was 2.6 g/dL and the TBIL (3 h) was 0.046 mg/dL. For the same compound, the TC (3 h) was 79 mg/dL, the TG (3 h) was 59 mg/dL and the TP (3 h) was 5.5 g/dL. The gamma-GTP (3 h) was 1.2 IU/L, the TERMINAL_BW (6 h) was 191.8 g and the APTT (6 h) was 24.9 s. It also gave a Bas (6 h) of 0%, an Eos (6 h) of 0.8% and a Fbg (6 h) of 302 mg/dL. It also gave a Hb (6 h) of 13.8 g/dL, a Ht (6 h) of 42.4% and a Lym (6 h) of 73.2%. For the same compound, the MCH (6 h) was 20.9 pg, the MCHC (6 h) was 32.5% and the MCV (6 h) was 64.2 fL. For the same compound, the Mono (6 h) was 3.4%, the Neu (6 h) was 21.8% and the PT (6 h) was 14.7 s. The Plat (6 h) was 130.7 x10_4/uL, the RBC (6 h) was 659.8 x10_4/ul and the Ret (6 h) was 8.9%. For the same compound, the WBC (6 h) was 76.3 x10_2/uL, the KIDNEY_L (6 h) was 0.8 g and the KIDNEY_R (6 h) was 0.8 g. For the same compound, the KIDNEY_TOTAL (6 h) was 1.6 g, the LIVER (6 h) was 8.2 g and the A/G (6 h) was 0.9. For the same compound, the ALP (6 h) was 1166.8 IU/L, the ALT (6 h) was 37.4 IU/L and the AST (6 h) was 72.4 IU/L. The BUN (6 h) was 7.6 mg/dL, the CRE (6 h) was 0.1 mg/dL and the Ca (6 h) was 10.5 mg/dL. The Cl (6 h) was 108 meq/L, the DBIL (6 h) was 0.006 mg/dL and the GLC (6 h) was 181 mg/dL. For the same compound, the IP (6 h) was 10.2 mg/dL, the K (6 h) was 4.4 meq/L and the LDH (6 h) was 126 IU/L. For the same compound, the Na (6 h) was 142.4 meq/L, the PL (6 h) was 138.4 mg/dL and the RALB (6 h) was 2.5 g/dL. The TBIL (6 h) was 0.042 mg/dL, the TC (6 h) was 83.6 mg/dL and the TG (6 h) was 35 mg/dL. For the same compound, the TP (6 h) was 5.4 g/dL, the gamma-GTP (6 h) was 1.4 IU/L and the TERMINAL_BW (9 h) was 189.4 g. For the same compound, the APTT (9 h) was 19.9 s, the Bas (9 h) was 0% and the Eos (9 h) was 1%. It also gave a Fbg (9 h) of 317 mg/dL, a Hb (9 h) of 13.6 g/dL and a Ht (9 h) of 42.2%. For the same compound, the Lym (9 h) was 73.8%, the MCH (9 h) was 20.7 pg and the MCHC (9 h) was 32.3%. The MCV (9 h) was 64.2 fL, the Mono (9 h) was 2.6% and the Neu (9 h) was 22.2%. For the same compound, the PT (9 h) was 14.9 s, the Plat (9 h) was 115 x10_4/uL and the RBC (9 h) was 656.4 x10_4/ul. It also gave a Ret (9 h) of 9.1%, a WBC (9 h) of 68.4 x10_2/uL and a KIDNEY_L (9 h) of 0.9 g. For the same compound, the KIDNEY_R (9 h) was 0.9 g, the KIDNEY_TOTAL (9 h) was 1.7 g and the LIVER (9 h) was 8 g. The A/G (9 h) was 0.9, the ALP (9 h) was 1297.6 IU/L and the ALT (9 h) was 35.2 IU/L. For the same compound, the AST (9 h) was 71.8 IU/L, the BUN (9 h) was 7.4 mg/dL and the CRE (9 h) was 0.1 mg/dL. The Ca (9 h) was 10.2 mg/dL, the Cl (9 h) was 106.4 meq/L and the DBIL (9 h) was 0.008 mg/dL. For the same compound, the GLC (9 h) was 171.8 mg/dL, the IP (9 h) was 10.4 mg/dL and the K (9 h) was 4 meq/L. It also gave an LDH (9 h) of 95 IU/L, a Na (9 h) of 142.4 meq/L and a PL (9 h) of 145 mg/dL. The RALB (9 h) was 2.5 g/dL, the TBIL (9 h) was 0.056 mg/dL and the TC (9 h) was 84.2 mg/dL. The TG (9 h) was 45 mg/dL, the TP (9 h) was 5.4 g/dL and the gamma-GTP (9 h) was 1.2 IU/L. The TERMINAL_BW (24 h) was 198.3 g, the APTT (24 h) was 17 s and the Bas (24 h) was 0.2%. It also gave an Eos (24 h) of 1.2%, a Fbg (24 h) of 324.6 mg/dL and a Hb (24 h) of 13.6 g/dL. For the same compound, the Ht (24 h) was 41.8%, the Lym (24 h) was 79.8% and the MCH (24 h) was 20.8 pg. The MCHC (24 h) was 32.6%, the MCV (24 h) was 63.8 fL and the Mono (24 h) was 2.6%. The Neu (24 h) was 15.6%, the PT (24 h) was 14.8 s and the Plat (24 h) was 114.6 x10_4/uL. It also gave an RBC (24 h) of 655.4 x10_4/ul, a Ret (24 h) of 7.8% and a WBC (24 h) of 93.8 x10_2/uL. The KIDNEY_L (24 h) was 0.9 g, the KIDNEY_R (24 h) was 0.9 g and the KIDNEY_TOTAL (24 h) was 1.8 g. It also gave an LIVER (24 h) of 8 g, an A/G (24 h) of 0.9 and an ALP (24 h) of 1572.4 IU/L. It also gave an ALT (24 h) of 45.8 IU/L, an AST (24 h) of 78.4 IU/L and a BUN (24 h) of 12.4 mg/dL. The CRE (24 h) was 0.2 mg/dL, the Ca (24 h) was 10.8 mg/dL and the Cl (24 h) was 109 meq/L. The DBIL (24 h) was 0.012 mg/dL, the GLC (24 h) was 185 mg/dL and the IP (24 h) was 7.9 mg/dL. The K (24 h) was 4.6 meq/L, the LDH (24 h) was 120.4 IU/L and the Na (24 h) was 142.4 meq/L. It also gave a PL (24 h) of 145.4 mg/dL, an RALB (24 h) of 2.6 g/dL and a TBIL (24 h) of 0.046 mg/dL. The TC (24 h) was 89.4 mg/dL, the TG (24 h) was 41.4 mg/dL and the TP (24 h) was 5.6 g/dL. It also gave a gamma-GTP (24 h) of 1.4 IU/L.
